Test results reported in patent US20260374750A1, “LIGANDS SPECIFICALLY TARGETING VESICULAR GLUTAMATE TRANSPORTERS FOR SUPER-RESOLUTION IMAGING” (SORBONNE UNIVERSITÉ, priority 2021, published 2026).
Read-outs that look alike come from different tables or passages of the source.

Assays:
[1] = system: VGLUT3 (BON VGLUT3 cells); assay: Confocal fluorescence labeling of BON cells expressing VGLUT3; format: cell-based, human (BON cells); conditions: for intensity of labeling in BON VGLUT3 cells relative to BON WT cells: FIG. 3, 20 minutes; for intensity of labeling in BON VGLUT3 cells relative to BON WT cells / fluorescence intensity in BON VGLUT3 cells relative to BON WT cells / labeling in cytoplasm of BON VGLUT3 cells: 37 °C; for fluorescence intensity in BON VGLUT3 cells relative to BON WT cells / labeling in cytoplasm of BON VGLUT3 cells: 1 h; for effect of LSP5 pretreatment on fluorescence intensity in BON VGLUT3 cells: pretreatment with LSP5-2157
Procedure: A “BON” cell line describes cells derived from human pancreatic carcinoma; the article by Ramet L. et al., published in J Neurosci, 2017, 37 (15), 4181-4199, describes such cells and the use thereof for the characterization of VGLUT type transporters.
(§1) The experiments are carried out with a BON cell line stably expressing VGLUT3 or a fluorescent VGLUT2 “VGLUT2-venus”. Wild non-transfected BON cells (“wild-type”, BON WT) are used as controls. The cells are cultured in F-12 Nutrient Mixture Ham medium (21765-029, Thermo Fisher Scientific) and Dulbecco's Modified Eagle's Medium High Glucose (DMEM HG, 31966021, Thermo Fisher Scientific; volume/volume), supplemented with 10% fetal calf serum (FCS, 12483012, Thermo Fisher Scientific) and 1% (volume/volume) of a mixture of streptomycin (10 mg/mL)/penicillin (10,000 U/mL) and […] an incubator at 37 °C under 5% CO2. For the transfected clones, the medium is enriched with 0.8 mg/mL Geneticin G418 sulfate (G418, 10131027, Thermo Fisher Scientific).
The cells are cultured in 25 cm^2 culture flasks. When the cells are at confluence, they are rinsed with sterile PBS 1× after aspiration of the medium, then incubated for five minutes at 37 °C with a solution of trypsin-EDTA (0.05% trypsin EDTA, 25300054, Thermo Fisher Scientific. The cell layer is then detached and the cells dissociated from each other. After addition of medium, the cell suspension is centrifuged for 5 minutes at 300 g, then the pellet is diluted 1:3 in order to be recultivated.
(§2) Two days before each experiment, after trypsinization of the cells from a culture flask, the cell suspension is seeded at 150,000 cells/well, in twelve-well plates on glass coverslips 19 mm in diameter. For observation, these coverslips are placed in a chamber allowing a hermetic fixation of the coverslip in the observation medium, Fluorobrite™ DMEM (A1896701, Thermo Fisher Scientific), a transparent medium.
(§3) Before each observation, the cells are incubated at 37 °C in the presence of fluorescent ligands, at previously determined concentrations. The effect of a pretreatment of BON cells with a specific inhibitor of VGLUTs, the substance LSP5-2157, is also performed to study the inhibitory effect of this substance on the labeling of BON cells with the fluorescent ligands of the invention.
(§4) The cells are observed in real time under an inverted confocal microscope, with a 63× objective in a room thermostated at 37 °C (Leica TCS SP5; cellular imaging platform of the Paris-Seine Institute of Biology). The studied fluorescent molecules emit in the blue, the cells are excited at 405 nm.
(§5) FIG. 2 illustrates the observation and quantification of the BON cells under a confocal microscope, and the inhibition of the fluorescent signal by a pretreatment of the cells with the specific VGLUT inhibitor, LSP5-2157. […] The images are presented in negative. D,H,L and P: Quantification of the treatment effect.
Different acquisitions of cells are carried out using a confocal microscope. […] Statistical analysis: Kruskal-Wallis test followed by Dunn's post-hoc test, NS: non-significant, *p<0.01; ***p<0.0001.
FIG. 3 illustrates the observation and quantification of BON cells using a confocal microscope. Wild-type cells (BON WT) or VGLUT3-expressing cells (BON VGLUT3) are incubated with different fluorescent ligands referenced: L8, YL151, D04, C07, C05, B09, G02, F11. After treatment with fluorescent ligands for 20 minutes at 37 °C, a fluorescent labeling is visible in BON cells. The effect of the treatment is analyzed by quantifying the fluorescence intensity in each cell type. […] Statistical analysis: Mann Whitney test, NS: non-significant, **p=0.0042; ***p<0.0001.

[2] = reference fluorophore, in ethanol; cited from earlier work
[3] = Fluorimetry: absorption and emission spectra, Stokes shift, molar absorption coefficient, quantum efficiency; format: physicochemical; parameters: λmax abs / λmax em: unit not given here; key to Stokes shift: λmaxem − λmaxabs (emission peak minus absorption peak); conditions: for Stokes shift: λmaxem-λmaxabs; for ε (molar absorption coefficient) / φ (quantum efficiency): coumarin-343 as reference
Procedure: The physicochemical properties of each ligand were determined thanks to fluorimetry. For each compound, a dilution range was performed and measurements were taken at 1 mM, 316 μM, 100 μM, 31.6 μM, 10 μM, 3.16 μM and 1μ. In 96-well fluorescence microplates, the absorbance and emission spectra of the ligands could be determined at each concentration thanks to a plate spectrophotometer (Tecan). The absorbance spectra are first measured for each compound so as to determine the maximum absorption wavelength (λmaxabs). The fluorescence, or emission, spectra are then determined after excitation of each compound at its λmaxabs, thus allowing obtaining the maximum fluorescence wavelength (λmaxem). Different parameters specific to each of the compounds were determined: • The Stokes shift: it corresponds to the difference between the peak of the absorption spectrum and the peak of the fluorescence spectrum, i.e.: λmaxem-λmaxabs • The molar absorption coefficient (ε): it reflects the capacity of the solutions to absorb light and is determined by the formula ε=A/(C.I)(A: optical density at λmaxabs, C: concentration of the compound, I: constant corresponding to the length of the optical path). ε is expressed in L·cm^−1·mol^−1. • The quantum efficiency (Φ): it represents the ratio of the number of photons emitted to the number of photons absorbed by the compound, i.e. the “probability” for an excited molecule to emit a photon. It takes a value between 0 and 1, 0 corresponding to a non-fluorescent molecule and 1 meaning that there is no de-excitation. Its value is determined thanks to the following formula where Abs: optical density at λmaxabs, AUC: area under the curve of the fluorescence spectrum, n: refractive index of the medium. In this formula, “m” refers to the studied molecule, and “r” to a reference fluorophore.
[formula] • of the fluorescence spectrum, n: refractive index of the medium). In this formula, “m” refers to the studied molecule, and “r” to a reference fluorophore.
The determination of ε and Φ requires the use of a reference fluorescent molecule for which these two parameters are known. Because of its coumarin-type fluorescent pattern, therefore close to those of the studied compounds, coumarin-343 (ε=44300 L·cm−1·mol−1 and Φ=0.63 in ethanol) was used as reference fluorophore. These two parameters were recalculated in the compound dilution medium (DMSO), and were used as a reference in the calculation of ε and Φ for each ligand.
In order to study the effect of a pH variation on the fluorescence intensity of the compounds, the measurements of the absorption and emission spectra were carried out in three different dilution media: • DMSO: pure dimethyl sulfoxide • Phosphate buffer pH 7.2 (0.2 M) • Phosphate buffer pH 5.5 (0.2 M)
FIG. 1 illustrates the absorption and emission spectra of the compound referenced L8, a carboxylic acid from the quinoline family. This is an example of the study carried out on each of the studied fluorophores. The graphic values determined thanks to these spectra are the λmaxabs, the λmaxem and the Stokes shift in each medium. […] The most diluted wells are preferred to see the emission peak of the compound.
The results which are obtained graphically thanks to the excitation and emission spectra and by calculation via the properties of coumarin 343 are grouped in Table 2 below.

BON WT cells = assay: Confocal fluorescence labeling of wild-type BON cells; format: cell-based, human; conditions: FIG. 2
Procedure: as §1, §2, §3, §4, §5

[4] = pH 7 (phosphate buffer pH 7.2, 0.2 M)
[5] = phosphate buffer pH 5.5 (0.2 M)

λmax abs ([3]; DMSO) | λmax em ([3]; DMSO) | Stokes shift ([3]; DMSO) | ε (molar absorption coefficient) ([3]; DMSO) | φ (quantum efficiency) ([3]; DMSO) | Stokes shift ([3]; pH 5.5) | λmax abs [3, 4] | λmax em [3, 4] | Stokes shift ([3]; pH 7) | λmax abs [3, 5] | λmax em [3, 5] | SMILES | intensity of labeling in BON VGLUT3 cells relative to BON WT cells [1] | labeling in cytoplasm of BON WT cells (BON WT cells) | fluorescence intensity in BON VGLUT3 cells relative to BON WT cells ([1]; FIG. 2) | labeling in cytoplasm of BON VGLUT3 cells ([1]; FIG. 2) | effect of LSP5 pretreatment on fluorescence intensity in BON VGLUT3 cells ([1]; FIG. 2) | other results
– | – | – | – | – | – | – | – | – | – | – | Nc1cc(S(=O)(=O)O)cc2cc(S(=O)(=O)O)c(/N=N/c3ccc(-c4ccc(/N=N/c5c(S(=O)(=O)O)cc6cc(S(=O)(=O)O)cc(N)c6c5O)cc4)cc3)c(O)c12 [LSP5-2157, reference compound] | – | – | – | – | – | inhibition of fluorescent labeling by pre-incubation with VGLUT inhibitor ([1]; FIG. 2, against labeling by fluorescent ligands): significantly reduces the fluorescent labeling; displacement of ligand binding in cell culture ([1]; reference VGLUT inhibitor): capable of displacing the ligand binding in cell culture
– | – | – | – | – | – | – | – | – | – | – | O=C(O)c1cc2cc3c4c(c2oc1=O)CCCN4CCC3 [coumarin-343] | – | – | – | – | – | Φ (quantum efficiency) [2]: 0.63; ε (molar absorption coefficient) [2]: 44300 L/cm/mol
– | – | – | – | – | – | – | – | – | – | – | Cc1cc(-c2ccc(/N=N/c3c(S(=O)(=O)O)cc4cc(S(=O)(=O)O)cc(N)c4c3O)c(C)c2)ccc1/N=N/c1c(S(=O)(=O)O)cc2cc(S(=O)(=O)O)cc(N)c2c1O [trypan blue, reference compound] | – | – | – | – | – | block of binding of novel ligands by reference inhibitor [1]: block the binding of novel ligands
360 | 420-570 | 60 | 25747.1 L/cm/mol | 0.11 | 85 | 365 | 440 | 75 | 365 | 450 | CCOC(=O)c1cc(C(=O)OCC)c2cc(-c3ccc(-c4ccccc4)cc3)ccc2n1 [YL151, Diethyl 6-(biphenyl-4-yl) quinoline-2,4-dicarboxylate] | increases significantly | – | – | – | – | –
320 | 407 | 87 | 48740.9 L/cm/mol | 0.1 | 47 | 365 | 412 | 47 | 365 | 412 | CCOC(=O)c1cc2cc(-n3cc(-c4ccc(-c5ccc(N)cc5)cc4)nn3)ccc2oc1=O [B09, Ethyl-6-(4-(4′-amino-[1,1′-biphenyl]-4-yl)-1H-1,2,3-triazol-1-yl)-2-oxo-2H-chromene-3-carboxylate] | increases significantly | a weak and homogeneous labeling is detected | significantly increases | a punctiform labeling appears | decreases the fluorescence intensity | –
335 | 410-430 | 75 | 64913.8 L/cm/mol | 0.05 | 50 | 365 | 400 | 35 | 330 | 380 | CCOC(=O)c1cc2cc(-n3cc(-c4ccc(-c5ccc(N)cc5)cc4)nn3)c(OC)cc2oc1=O [C07, Ethyl 6-(4-(4′-amino-[1,1′-biphenyl]-4-yl)-1H-1,2,3-triazol-1-yl)-7-methoxy-2-oxo-2H-chromene-3-carboxylate] | increases significantly | a weak and homogeneous labeling is detected | significantly increases | a punctiform labeling appears | do not significantly differ | –
